Laboratory results from ChEMBL document CHEMBL3792365, “Dioxol and dihydrodioxin analogs of 2- and 3-phenylacetonitriles as potent anti-cancer agents with nanomolar activity against a variety of human cancer cells” (2016).

Legend:
Type in all cases: functional
U-251 = assay: Growth inhibition of human U251 cells at 10 uM after 48 hrs by sulforhodamine B assay; settings: U-251, 48 h, values are per cent of control
[1] = Growth inhibition of human LOXIMVI cells at 10 uM after 48 hrs by sulforhodamine B assay; settings: LOX IMVI, values are per cent of control
M14 = assay: Growth inhibition of human M14 cells at 10 uM after 48 hrs by sulforhodamine B assay; settings: M14, 48 h, values are per cent of control
MDA-MB-435 = assay: Growth inhibition of human MDA-MB-435 cells at 10 uM after 48 hrs by sulforhodamine B assay; settings: MDA-MB-435, 48 h, values are per cent of control
SK-MEL-5 = assay: Growth inhibition of human SK-MEL-5 cells at 10 uM after 48 hrs by sulforhodamine B assay; settings: SK-MEL-5, 48 h, values are per cent of control
[2] = Growth inhibition of human UACC62 cells at 10 uM after 48 hrs by sulforhodamine B assay; settings: UACC-62, 48 h, values are per cent of control
[3] = Growth inhibition of human OVCAR4 cells at 10 uM after 48 hrs by sulforhodamine B assay; settings: OVCAR-4, 48 h, values are per cent of control
[4] = Growth inhibition of human OVCAR5 cells at 10 uM after 48 hrs by sulforhodamine B assay; settings: OVCAR-5, 48 h, values are per cent of control
[5] = Growth inhibition of human OVCAR8 cells at 10 uM after 48 hrs by sulforhodamine B assay; settings: OVCAR-8, 48 h, values are per cent of control
[6] = Growth inhibition of human NCI-ADR-RES cells at 10 uM after 48 hrs by sulforhodamine B assay; settings: values are per cent of control
[7] = Growth inhibition of human SKOV3 cells at 10 uM after 48 hrs by sulforhodamine B assay; settings: SK-OV-3, 48 h, values are per cent of control
A498 = assay: Growth inhibition of human A498 cells at 10 uM after 48 hrs by sulforhodamine B assay; settings: A498, 48 h, values are per cent of control
ACHN = assay: Growth inhibition of human ACHN cells at 10 uM after 48 hrs by sulforhodamine B assay; settings: values are per cent of control
[8] = Growth inhibition of human Caki1 cells at 10 uM after 48 hrs by sulforhodamine B assay; settings: CAKI-1, 48 h, values are per cent of control
SN12C = assay: Growth inhibition of human SN12C cells at 10 uM after 48 hrs by sulforhodamine B assay; settings: values are per cent of control
[9] = Growth inhibition of human TK10 cells at 10 uM after 48 hrs by sulforhodamine B assay; settings: TK-10, 48 h, values are per cent of control
[10] = Growth inhibition of human DU145 cells at 10 uM after 48 hrs by sulforhodamine B assay; settings: DU-145, 48 h, values are per cent of control
MDA-MB-231 = assay: Growth inhibition of human MDA-MB-231 cells at 10 uM after 48 hrs by sulforhodamine B assay; settings: MDA-MB-231, 48 h, values are per cent of control
[11] = Growth inhibition of human Hs 578T cells at 10 uM after 48 hrs by sulforhodamine B assay; settings: values are per cent of control
[12] = Growth inhibition of human BT549 cells at 10 uM after 48 hrs by sulforhodamine B assay; settings: BT-549, 48 h, values are per cent of control
T47D = assay: Growth inhibition of human T47D cells at 10 uM after 48 hrs by sulforhodamine B assay; settings: values are per cent of control
MDA-MB-468 = assay: Growth inhibition of human MDA-MB-468 cells at 10 uM after 48 hrs by sulforhodamine B assay; settings: MDA-MB-468, 48 h, values are per cent of control
K562 = assay: Growth inhibition of human K562 cells at 10 uM after 48 hrs by sulforhodamine B assay; settings: K562, 48 h, values are per cent of control
SR = assay: Growth inhibition of human SR cells at 10 uM after 48 hrs by sulforhodamine B assay; settings: values are per cent of control
A549 = assay: Growth inhibition of human A549/ATCC cells at 10 uM after 48 hrs by sulforhodamine B assay; settings: A549, 48 h, values are per cent of control
NCI-H226 = assay: Growth inhibition of human NCI-H226 cells at 10 uM after 48 hrs by sulforhodamine B assay; settings: NCI-H226, 48 h, values are per cent of control
NCI-H23 = assay: Growth inhibition of human NCI-H23 cells at 10 uM after 48 hrs by sulforhodamine B assay; settings: NCI-H23, 48 h, values are per cent of control
NCI-H322M = assay: Growth inhibition of human NCI-H322M cells at 10 uM after 48 hrs by sulforhodamine B assay; settings: values are per cent of control
NCI-H460 = assay: Growth inhibition of human NCI-H460 cells at 10 uM after 48 hrs by sulforhodamine B assay; settings: NCI-H460, 48 h, values are per cent of control
NCI-H522 = assay: Growth inhibition of human NCI-H522 cells at 10 uM after 48 hrs by sulforhodamine B assay; settings: NCI-H522, 48 h, values are per cent of control
[13] = Growth inhibition of human COLO205 cells at 10 uM after 48 hrs by sulforhodamine B assay; settings: COLO 205, 48 h, values are per cent of control
[14] = Growth inhibition of human HCT116 cells at 10 uM after 48 hrs by sulforhodamine B assay; settings: HCT-116, 48 h, values are per cent of control
[15] = Growth inhibition of human HCT15 cells at 10 uM after 48 hrs by sulforhodamine B assay; settings: HCT-15, 48 h, values are per cent of control
HT-29 = assay: Growth inhibition of human HT-29 cells at 10 uM after 48 hrs by sulforhodamine B assay; settings: HT-29, 48 h, values are per cent of control
KM12 = assay: Growth inhibition of human KM12 cells at 10 uM after 48 hrs by sulforhodamine B assay; settings: KM12, 48 h, values are per cent of control
[16] = Growth inhibition of human SW620 cells at 10 uM after 48 hrs by sulforhodamine B assay; settings: SW-620, 48 h, values are per cent of control
[17] = Growth inhibition of human SF268 cells at 10 uM after 48 hrs by sulforhodamine B assay; settings: SF-268, 48 h, values are per cent of control
[18] = Growth inhibition of human SF295 cells at 10 uM after 48 hrs by sulforhodamine B assay; settings: SF-295, 48 h, values are per cent of control
[19] = Growth inhibition of human SF539 cells at 10 uM after 48 hrs by sulforhodamine B assay; settings: SF-539, 48 h, values are per cent of control
[20] = Growth inhibition of human SNB19 cells at 10 uM after 48 hrs by sulforhodamine B assay; settings: SNB-19, 48 h, values are per cent of control

## N#C/C(=C\c1c(Cl)cccc1Cl)c1ccc2c(c1)OCO2
U-251
  growth, % of control at 10 µM: 89%
[1]
  growth, % of control at 10 µM: 98.9%
M14
  growth, % of control at 10 µM: 89.7%
MDA-MB-435
  growth, % of control at 10 µM: 63.5%
SK-MEL-5
  growth, % of control at 10 µM: 93.5%
[2]
  growth, % of control at 10 µM: 86.4%
[3]
  growth, % of control at 10 µM: 79.9%
[4]
  growth, % of control at 10 µM: 103%
[5]
  growth, % of control at 10 µM: 92.6%
[6]
  growth, % of control at 10 µM: 103%
[7]
  growth, % of control at 10 µM: 97.9%
A498
  growth, % of control at 10 µM: 82.7%
ACHN
  growth, % of control at 10 µM: 103%
[8]
  growth, % of control at 10 µM: 83.2%
SN12C
  growth, % of control at 10 µM: 95.9%
[9]
  growth, % of control at 10 µM: 81%
[10]
  growth, % of control at 10 µM: 99.3%
MDA-MB-231
  growth, % of control at 10 µM: 95.8%
[11]
  growth, % of control at 10 µM: 101%
[12]
  growth, % of control at 10 µM: 100%
T47D
  growth, % of control at 10 µM: 83.8%
MDA-MB-468
  growth, % of control at 10 µM: 84.9%
K562
  growth, % of control at 10 µM: 77.5%
SR
  growth, % of control at 10 µM: 77%
A549
  growth, % of control at 10 µM: 79.9%
NCI-H226
  growth, % of control at 10 µM: 111%
NCI-H23
  growth, % of control at 10 µM: 93.7%
NCI-H322M
  growth, % of control at 10 µM: 102%
NCI-H460
  growth, % of control at 10 µM: 102%
NCI-H522
  growth, % of control at 10 µM: 65.4%
[13]
  growth, % of control at 10 µM: 99.6%
[14]
  growth, % of control at 10 µM: 89.7%
[15]
  growth, % of control at 10 µM: 92.6%
HT-29
  growth, % of control at 10 µM: 93.7%
KM12
  growth, % of control at 10 µM: 95.2%
[16]
  growth, % of control at 10 µM: 99.9%
[17]
  growth, % of control at 10 µM: 102%
[18]
  growth, % of control at 10 µM: 95.6%
[19]
  growth, % of control at 10 µM: 97.9%
[20]
  growth, % of control at 10 µM: 106%

## N#C/C(=C\c1cc(Br)cc(Br)c1)c1ccc2c(c1)OCO2
U-251
  growth, % of control at 10 µM: 99.9%
[1]
  growth, % of control at 10 µM: 97.1%
M14
  growth, % of control at 10 µM: 92.8%
MDA-MB-435
  growth, % of control at 10 µM: 98.7%
SK-MEL-5
  growth, % of control at 10 µM: 95.4%
[2]
  growth, % of control at 10 µM: 85.4%
[3]
  growth, % of control at 10 µM: 81.3%
[4]
  growth, % of control at 10 µM: 100%
[5]
  growth, % of control at 10 µM: 108%
[6]
  growth, % of control at 10 µM: 94.9%
[7]
  growth, % of control at 10 µM: 94.4%
A498
  growth, % of control at 10 µM: 90.4%
ACHN
  growth, % of control at 10 µM: 96.1%
[8]
  growth, % of control at 10 µM: 88.1%
SN12C
  growth, % of control at 10 µM: 94.7%
[9]
  growth, % of control at 10 µM: 96.1%
[10]
  growth, % of control at 10 µM: 94.2%
MDA-MB-231
  growth, % of control at 10 µM: 89.9%
[11]
  growth, % of control at 10 µM: 112%
[12]
  growth, % of control at 10 µM: 91.4%
T47D
  growth, % of control at 10 µM: 82%
MDA-MB-468
  growth, % of control at 10 µM: 103%
K562
  growth, % of control at 10 µM: 96.2%
SR
  growth, % of control at 10 µM: 79%
A549
  growth, % of control at 10 µM: 79.9%
NCI-H226
  growth, % of control at 10 µM: 115%
NCI-H23
  growth, % of control at 10 µM: 91.5%
NCI-H322M
  growth, % of control at 10 µM: 91.4%
NCI-H460
  growth, % of control at 10 µM: 99.4%
NCI-H522
  growth, % of control at 10 µM: 76.3%
[13]
  growth, % of control at 10 µM: 106%
[14]
  growth, % of control at 10 µM: 82.1%
[15]
  growth, % of control at 10 µM: 92.6%
HT-29
  growth, % of control at 10 µM: 91.1%
KM12
  growth, % of control at 10 µM: 92.4%
[16]
  growth, % of control at 10 µM: 101%
[17]
  growth, % of control at 10 µM: 93.5%
[18]
  growth, % of control at 10 µM: 96.4%
[19]
  growth, % of control at 10 µM: 94.4%
[20]
  growth, % of control at 10 µM: 109%
